For data set [1], the target named is T1, human VR1 receptors (Homo sapiens, UniProt Q8NER1).
T1 construct: host or cells: cells highly expressing human VR1; cell type not specified
Briefly: Human VR1 antagonist assay (Ca2+ imaging). Format: cell-based. Conditions: cells expressing human VR1, fura-2 Ca2+ imaging, FDSS 6000; capsaicin (300 nM) or acid (pH5.8) stimulation, table does not say which. The source says:
Human VR1 Antagonist Assay
VR1 antagonistic activity can be determined by the Ca^2+ imaging assay using human VR1 highly expressing cells. The cells that highly express human VR1 receptors are obtainable from several different conventional methods. The one standard method is cloning from human Dorsal Root Ganglion (DRG) or kidney according to the methods such as described in the journal article; Nature, 389, pp 816-824, 1997. Alternatively VR1 receptors highly expressing human keratinocytes are also known and published in the journal article (Biochemical and Biophysical Research Communications, 291, pp 124-129, 2002). […] Further more, the method to up regulate human VR1 gene, which is usually a silent gene or don't produce detectable level of VR1 receptors, is also available to obtain propriety cells. Such genetic modification method was described in detail; Nat. Biotechnol., 19, pp 440-445, 2001.
The cells that express human VR1 receptors were maintained in culture flask at 37° C. in an environment containing 5% CO2 until use in the assay. The intracellular Ca^2+ imaging assay to determine VR1 antagonistic activities were done by following procedures.
The culture medium was removed from the flask and fura-2/AM fluorescent calcium indicator was added to the flask at a concentration of 5 μM in the medium. The flask was placed in CO2 incubator and incubated for 1 hour. Then the cells expressing the human VR1 receptors were detached from the flask follow by washing with phosphate buffer saline, PBS(−) and re-suspended in assay buffer. The 80 μl of aliquot of cell suspension (3.75×10^5 cells/ml) was added to the assay plate and the cells were spun down by centrifuge (950 rpm, 20° C., 3 minutes).
Capsaicin Stimulation Assay:
The capsaicin-induced changes in the intracellular calcium concentration were monitored using FDSS 6000 (Hamamatsu Photonics, Japan), a fluorometric imaging system. The cell suspension in Krebs-Ringer HEPES (KRH) buffer (115 mM NaCl, 5.4 mM KCl, 1 mM MgSO4, 1.8 mM CaCl2, 11 mM D-Glucose, 25 mM HEPES, 0.96 mM Na2HPO4, pH 7.3) were pre-incubated with varying concentrations of the test compounds or KRH buffer (buffer control) for 15 minutes at room temperature under the dark condition. Then capsaicin solution, which gives 300 nM in assay mixture, was automatically added to the assay plate by the FDSS 6000.
The Acid-induced changes in the intracellular calcium concentration were monitored using FDSS 6000 (Hamamatsu Photonics, Japan), a fluorometric imaging system. The cell suspension in resting buffer (HBSS supplemented with 10 mM HEPES, pH 7.4) were pre-incubated with varying concentrations of the test compounds or resting buffer (buffer control) for 15 minutes at room temperature under the dark condition. The cells were automatically added the stimulating solution (HBSS supplemented with MES, final assay buffer pH5.8) by the FDSS 6000.
Determination of Antagonist Activity
The monitoring of the changes in the fluorescence signals (λex=340 nm/380 nm, λem=510-520 nm) was initiated at 1 minute prior to the addition of capsaicin solution or acidic buffer and continued for 5 minute.

Data set [2] in a line: Half-life in Human Liver Microsomes (HLM). Conditions: pH 7.4; for half-life at 1 μM: human, human liver microsomes (HL101). (In general: Liver microsomes are vesicles of endoplasmic reticulum, rich in cytochrome P450 enzymes.)
Method: Test compounds (1 μM) were incubated with 3.3 mM MgCl2 and 0.78 mg/mL HLM (HL101) in 100 mM potassium phosphate buffer (pH 7.4) at 37° C. on the 96-deep well plate. The reaction mixture was split into two groups, a non-P450 and a P450 group. NADPH was only added to the reaction mixture of the P450 group. An aliquot of samples of P450 group was collected at 0, 10, 30, and 60 min time point, where 0 min time point indicated the time when NADPH was added into the reaction mixture of P450 group. An aliquot of samples of non-P450 group was collected at −10 and 65 min time point. Collected aliquots were extracted with acetonitrile solution containing an internal standard. The precipitated protein was spun down in centrifuge (2000 rpm, 15 min). The compound concentration in supernatant was measured by LC/MS/MS system.
The half-life value was obtained by plotting the natural logarithm of the peak area ratio of compounds/internal standard versus time. The slope of the line of best fit through the points yields the rate of metabolism (k).

The structures appear in SMILES notation. Where a name gives a salt, the structure may show the parent alone. Where only a bound is given, the exact number is not on record here.

T1 sequence (Q8NER1 whole entry): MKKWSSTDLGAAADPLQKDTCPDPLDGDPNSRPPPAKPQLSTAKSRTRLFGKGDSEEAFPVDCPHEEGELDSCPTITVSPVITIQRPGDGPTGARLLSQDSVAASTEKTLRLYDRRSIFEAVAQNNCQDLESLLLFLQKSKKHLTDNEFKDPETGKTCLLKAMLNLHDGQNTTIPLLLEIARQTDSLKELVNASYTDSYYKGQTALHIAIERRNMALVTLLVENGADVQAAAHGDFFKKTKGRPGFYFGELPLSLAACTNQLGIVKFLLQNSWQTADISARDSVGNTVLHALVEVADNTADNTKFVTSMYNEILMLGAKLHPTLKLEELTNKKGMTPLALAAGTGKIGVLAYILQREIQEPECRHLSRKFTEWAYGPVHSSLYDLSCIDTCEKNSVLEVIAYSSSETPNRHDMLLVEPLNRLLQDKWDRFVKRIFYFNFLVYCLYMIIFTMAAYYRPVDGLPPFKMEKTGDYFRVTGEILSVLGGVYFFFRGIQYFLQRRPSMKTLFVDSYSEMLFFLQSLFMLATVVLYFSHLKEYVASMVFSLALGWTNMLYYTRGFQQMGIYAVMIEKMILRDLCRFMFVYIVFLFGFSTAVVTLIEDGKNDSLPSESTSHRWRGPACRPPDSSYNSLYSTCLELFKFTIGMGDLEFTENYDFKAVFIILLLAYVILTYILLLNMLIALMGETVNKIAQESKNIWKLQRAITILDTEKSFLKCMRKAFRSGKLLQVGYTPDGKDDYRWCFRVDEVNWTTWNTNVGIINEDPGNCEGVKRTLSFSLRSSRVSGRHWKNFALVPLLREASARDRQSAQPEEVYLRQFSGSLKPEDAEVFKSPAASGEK

Molecule `CCc1cc([C@@H](C)NC(=O)C2CC2(C)c2ccc(OC(F)(F)F)cc2)ccc1NS(C)(=O)=O` (mixture of isomers) [Example 29, N-((1R)-1-{3-Ethyl-4-[(methylsulfonyl)amino]phenyl}ethyl)-2-methyl-2-{4-[(trifluoromethyl)oxy]phenyl}cyclopropanecarboxamide] gave an IC50 in data set [1] of 17.9 nM. The same molecule yielded a half-life at 1 μM in data set [2] of 19 min.
The molecule `Cc1cc([C@@H](C)NC(=O)C2CC2(C)c2ccc(OC(F)(F)F)cc2)ccc1NS(C)(=O)=O` (single isomer, unassigned) [Example 28] registered an IC50 in data set [1] of 12.3 nM. Further, the half-life at 1 μM in data set [2] stood at 61 min.
For `Cc1cc([C@@H](C)NC(=O)C2CC2c2cc(F)c(C(C)(C)C(F)(F)F)c(F)c2)ccc1NS(C)(=O)=O` (single isomer, unassigned) [Example 30] the same measures were 138 nM and 32 min.
Molecule `Cc1nc([C@@H](C)NC(=O)C2CC2c2ccc(C(C)(C)C)cc2)ccc1NS(C)(=O)=O` (single isomer, unassigned) [Example 55] returned an IC50 in data set [1] of 297 nM. The molecule further showed a half-life at 1 μM in data set [2] of 42 min.
In data set [1], `Cc1nc([C@@H](C)NC(=O)C2CC2c2ccc(C(F)(F)F)cc2)ccc1NS(C)(=O)=O` (single isomer, unassigned) [Example 56] registered an IC50 of 1250 nM. This molecule showed a half-life at 1 μM in data set [2] of over 120 min.
For `Cc1cc([C@@H](C)NC(=O)C2CC2(C)c2ccc(C(F)(F)F)nc2)ccc1NS(C)(=O)=O` (single isomer, unassigned) [Example 57] the same measures were 30.5 nM and 91 min.
Taken in the same sequence, the figures for `Cc1cc([C@@H](C)NC(=O)C2CC2(C)c2cc(F)c(C(C)(C)C(F)(F)F)c(F)c2)ccc1NS(C)(=O)=O` (single isomer, unassigned) [Example 71] were 0.48 nM and 15.8 min.
For the molecule `Oc1cc2c(cc1O)CN(C(=S)NCCc1ccc(Cl)cc1)CCC2` [Capsazepine, reference compound], the IC50 in data set [1] was 237 to 455 nM.
Still for that read-out and setting: as for `Cc1cc([C@@H](C)NC(=O)C2CC2(C)c2ccc(C(C)(C)O)cc2)ccc1NS(C)(=O)=O` (stereo partly drawn) [Example 3, 2-[4-(1-Hydroxy-1-methylethyl)phenyl]-2-methyl-N-((1R)-1-{3-methyl-4-[(methylsulfonyl)amino]phenyl}ethyl)cyclopropanecarboxamide], the figure is 885 nM.
For the molecule `Cc1cc([C@@H](C)NC(=O)C2CC2(C)c2ccc(C(C)(C)C)nc2)ccc1NS(C)(=O)=O` (stereo partly drawn) [Example 11, 2-(6-tert-Butylpyridin-3-yl)-2-methyl-N-((1R)-1-{3-methyl-4-[(methylsulfonyl)amino]phenyl}ethyl)cyclopropanecarboxamide monohydrochloride], the “T1/2” value in data set [2] (1 μM compound, 0.78 mg/mL HLM, 37° C., NADPH) turned out to be 22 min.
In data set [2], `CCc1nc([C@@H](C)NC(=O)C2C[C@]2(C)c2ccc(C(C)(C)C(F)(F)F)cc2)ccc1NS(C)(=O)=O` (stereo partly drawn) [Example 35, N-((1R)-1-{6-Ethyl-5-[(methylsulfonyl)amino]pyridin-2-yl}ethyl)-2-methyl-2-[4-(2,2,2-trifluoro-1,1-dimethylethyl)phenyl]cyclopropanecarboxamide] yielded a half-life at 1 μM of 25 min.
Take `CCc1nc([C@@H](C)NC(=O)[C@H]2C[C@]2(C)c2ccc(C(C)(C)C(F)(F)F)cc2)ccc1NS(C)(=O)=O` [Example 35, N-((1R)-1-{6-Ethyl-5-[(methylsulfonyl)amino]pyridin-2-yl}ethyl)-2-methyl-2-[4-(2,2,2-trifluoro-1,1-dimethylethyl)phenyl]cyclopropanecarboxamide]: in data set [1], half-maximal inhibition (IC50) required 156 nM. In other words, the sub-micromolar range.
Take `C[C@@H](NC(=O)C1C[C@@H]1c1ccc(C(C)(C)C)c(F)c1)c1ccc(NS(C)(=O)=O)c(CO)c1` (stereo partly drawn) [Example 36, 2-[4-tert-Butyl-3-fluorophenyl]-N-((1R)-1-{3-(hydroxymethyl)-4-[(methylsulfonyl)amino]phenyl}ethyl)cyclopropanecarboxamide]: the half-life at 1 μM in data set [2] was found to be 23 min.
The molecule `C[C@@H](NC(=O)[C@H]1C[C@@H]1c1ccc(C(C)(C)C)c(F)c1)c1ccc(NS(C)(=O)=O)c(CO)c1` [Example 36, 2-[4-tert-Butyl-3-fluorophenyl]-N-((1R)-1-{3-(hydroxymethyl)-4-[(methylsulfonyl)amino]phenyl}ethyl)cyclopropanecarboxamide] gave an IC50 in data set [1] of 19 nM.
With `C[C@@H](NC(=O)C1CC1c1ccc(C(C)(C)C)nc1)c1ccc(NS(C)(=O)=O)c(F)c1` (stereo partly drawn) [Example 52, 2-[6-tert-Butylpyridin-3-yl]-N-((1R)-1-{3-fluoro-4-[(methylsulfonyl)amino]phenyl}ethyl)cyclopropanecarboxamide], 1150 nM corresponded to half-maximal inhibition in data set [1] (IC50).
`Cc1cc([C@@H](C)NC(=O)C2CC2c2ccc(C(C)(C)C)cc2-c2ccncc2)ccc1NS(C)(=O)=O` (stereo partly drawn) [Example 65, 2-[4-tert-Butyl-2-pyridin-4-ylphenyl]-N-((1R)-1-{3-methyl-4-[(methylsulfonyl)amino]phenyl}ethyl)cyclopropanecarboxamide]: the IC50 in data set [1] was 1040 nM.
The same measure, in the same setting: as for `Cc1cc([C@@H](C)NC(=O)C2CC2(C)c2cc(F)c(C(C)(C)C)c(F)c2)c(F)cc1NS(C)(=O)=O` (stereo partly drawn) [Example 78, 2-(4-tert-Butyl-3,5-difluorophenyl)-N-((1R)-1-{2-fluoro-5-methyl-4-[(methylsulfonyl)amino]phenyl}ethyl)-2-methylcyclopropanecarboxamide], the figure is under 3 nM; as for `COCC(C)(C)c1ccc(C2(C)CC2C(=O)N[C@H](C)c2ccc(NS(C)(=O)=O)c(C)c2)cc1F` (stereo partly drawn) [Example 85, 2-{4-[1,1-Dimethyl-2-(methyloxy)ethyl]-3-fluorophenyl}-2-methyl-N-((1R)-1-{3-methyl-4-[(methylsulfonyl)amino]phenyl}ethyl)cyclopropanecarboxamide], 52.7 nM; as for `C[C@@H](NC(=O)[C@H]1C[C@]1(C)c1ccc(C(F)(F)F)cc1)c1ccc(NS(C)(=O)=O)c(CCO)c1` [Example 86, (1S,2S)-N-((1R)-1-{3-(2-Hydroxyethyl)-4-[(methylsulfonyl)amino]phenyl}ethyl)-2-methyl-2-[4-(trifluoromethyl)phenyl]cyclopropanecarboxamide], 4.8 nM.
Same read-out and setting: under `CCc1cc([C@@H](CC)NC(=O)[C@H]2C[C@]2(C)c2ccc(C(F)(F)F)cc2)ccc1NS(C)(=O)=O` [Example 87, (1S,2S)-N-((1R)-1-{3-ethyl-4-[(methylsulfonyl)amino]phenyl}propyl)-2-methyl-2-[4-(trifluoromethyl)phenyl]cyclopropanecarboxamide] stands 19.9 nM.
Same read-out and setting: under `CCC1(c2ccc(C(F)(F)F)cc2)CC1C(=O)N[C@H](C)c1ccc(NS(C)(=O)=O)c(C)c1` (stereo partly drawn) [Example 88, 2-Ethyl-N-((1R)-1-{3-methyl-4-[(methylsulfonyl)amino]phenyl}ethyl)-2-[4-(trifluoromethyl)phenyl]cyclopropanecarboxamide] stands under 3 nM; under `CCC1(c2ccc(C(F)(F)F)cc2)CC1C(=O)N[C@H](C)c1ccc(NS(C)(=O)=O)c(F)c1` (stereo partly drawn) [Example 89, 2-Ethyl-N-((1R)-1-{3-fluoro-4-[(methylsulfonyl)amino]phenyl}ethyl)-2-[4-(trifluoromethyl)phenyl]cyclopropanecarboxamide], under 3 nM.
The molecule `CC[C@@H](NC(=O)[C@H]1C[C@]1(C)c1cc(F)c(C(C)(C)C)c(F)c1)c1ccc(NS(C)(=O)=O)cc1` [Example 90, 2-(4-tert-Butyl-3,5-difluorophenyl)-2-methyl-N-((1R)-1-{4-[(methylsulfonyl)amino]phenyl}propyl)cyclopropanecarboxamide] gave an IC50 in data set [1] of 86.3 nM.
In data set [1], `CC[C@@H](NC(=O)[C@H]1C[C@]1(C)c1cc(F)c(C(C)(C)C)c(F)c1)c1ccc(NS(C)(=O)=O)c(C)c1` [Example 91, 2-(4-tert-butyl-3,5-difluorophenyl)-2-methyl-N-((1R)-1-{3-methyl-4-[(methylsulfonyl)amino]phenyl}propyl)cyclopropanecarboxamide] returned an IC50 of under 3 nM.

The term IC50 denotes the concentration that inhibits the measured activity by half. Low readings indicate inhibition by little substance, high ones a need for much substance. A word on the half-life: it is how long it takes for the measured level to halve. High values mean slow decline, low ones rapid decline.
